Patent US20250152719A1, “FUSED IMIDE DERIVATIVE” (Chia Tai Tianqing Pharmaceutical Group Co., Ltd., priority 2021, published 2025)
pIC50: −log10 of the molar value.

Key:
Assay type in all cases: cell-based
[1] = tested on: TMD8-BTK(C481S) cells; assay: Inhibitory activity on TMD8-BTK(C481S) cell proliferation (CCK-8); settings: 72 h incubation
Experimental: (§1) TMD8-BTK(C481S) cells in a good growth state were collected and added to a centrifuge tube, adjusted to a cell density of 8×10^4 cells/mL, and seeded in a 96-well plate (100 μL/well). The cells were incubated overnight in a cell incubator. Compounds were added using a nanoliter pipettor such that the final concentrations of the compounds were 5000 nM-0.31 nM; the addition was performed in duplicate, and meanwhile, a control was set. After another 72 h of incubation in the cell incubator, 10 μL of CCK-8 (CK04, PP799) was added. After 4 h of incubation in the cell incubator, absorbance values were detected at 450 nm using an Envision microplate reader, the four-parameter analysis was performed, the dose-response curves were fit, and IC50 was calculated.

[2] = molecular target: BTK (Homo sapiens (Human), UniProt Q06187); assay: BTK degradation in OCI-LY10 cells (Total-BTK HTRF kit); settings: 24 (or 6) h incubation; for Dmax: OCI-Ly10, OCI-LY10 cells; for Dmax / BTK degradation in OCI-LY10 cells Dmax: maximum degradation rate; for DC50 / BTK degradation in OCI-LY10 cells Dmax: OCI-LY10 cells; for DC50: DC50 = concentration when degradation rate reaches 50%, read-out: OCI-LY10 cell BTK degradation DC50
BTK, sequence (Q06187 whole entry): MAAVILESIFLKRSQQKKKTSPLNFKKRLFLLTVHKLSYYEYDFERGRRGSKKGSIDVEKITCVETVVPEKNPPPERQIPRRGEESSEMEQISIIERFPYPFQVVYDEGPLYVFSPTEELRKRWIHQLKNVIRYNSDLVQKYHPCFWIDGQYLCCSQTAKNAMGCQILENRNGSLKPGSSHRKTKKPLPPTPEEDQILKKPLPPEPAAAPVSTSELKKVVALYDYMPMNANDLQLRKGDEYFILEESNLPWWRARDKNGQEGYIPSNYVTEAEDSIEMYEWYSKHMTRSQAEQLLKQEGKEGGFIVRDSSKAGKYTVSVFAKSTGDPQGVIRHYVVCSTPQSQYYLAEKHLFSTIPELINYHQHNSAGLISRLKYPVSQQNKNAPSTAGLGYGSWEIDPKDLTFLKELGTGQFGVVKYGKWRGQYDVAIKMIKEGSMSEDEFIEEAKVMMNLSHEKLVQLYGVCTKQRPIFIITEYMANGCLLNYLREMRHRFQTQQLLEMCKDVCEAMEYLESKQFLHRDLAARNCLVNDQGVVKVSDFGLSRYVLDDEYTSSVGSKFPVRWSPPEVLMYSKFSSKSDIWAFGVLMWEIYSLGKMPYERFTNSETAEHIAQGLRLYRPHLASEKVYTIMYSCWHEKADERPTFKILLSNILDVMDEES
Experimental: The detection was carried out using the Total-BTK Kits (cisbio, 63ADK064PEH), and 4× Supplemented Lysis buffer was prepared using the Blocking reagent stock solution (100×) and Lysis buffer stock solution (4×). Premixed antibody solutions were prepared using the Detection buffer, Total-BTK d2 antibody, and Total-BTK Eu Cryptate antibody.
OCI-LY10 cells in a good growth state were collected and added to a centrifuge tube, adjusted to a cell density of 4.17×10^6 cells/mL, and seeded in a 384-well plate (12 μL/well). The cells were incubated overnight in a cell incubator. Compounds were added using a nanoliter pipettor such that the final concentrations of the compounds were 100 nM-0.098 nM; the addition was performed in duplicate, and meanwhile, a control was set. After another 24 (or 6) h of incubation in the cell incubator, the 4× Supplemented Lysis buffer was added at 4 μL/well to lyse the cells. After the cells were shaken for 40 min at room temperature, the Premixed antibody solutions were added at 4 μL/well, and the cells were left to stand overnight at room temperature. Fluorescence values of the cells were detected at 665 nm/620 nm using an Envision microplate reader, the four-parameter analysis was performed, the dose-response curves were fit, and DC50 (the concentration of the drug when the degradation rate reaches 50%) and Dmax (the maximum degradation rate) were calculated.

[3] = tested on: OCI-LY10 cells; assay: Inhibitory activity on OCI-LY10 cell proliferation (CCK-8)
Experimental: as §1, with “OCI-LY10 cells” for “TMD8-BTK(C481S) cells”, “of 1×10^5” for “of 8×10^4”, “After 2.5” for “After 4”

[4] = Homo sapiens, OCI-Ly10, 72 h incubation

Dmax [2] | BTK degradation in OCI-LY10 cells Dmax [2] | Structure (SMILES) | pIC50 ([1]; 72 h) | other results
> 90% | – | CN1CCN([C@@H]2CCCN(c3cnc(C(N)=O)c(Nc4ccc5c(c4)CCC4(CCN(CC6Cc7ccc8c(C9CCC(=O)NC9=O)noc8c7C6)CC4)O5)n3)C2)C1=O (stereo partly drawn) [Compound 77] | 7.64 | pIC50 [3, 4]: > 9.51
> 90% | – | CN1CCN([C@@H]2CCCN(c3cnc(C(N)=O)c(Nc4ccc(C5CCC6(CC5)CC(N5CCc7ccc8c(C9CCC(=O)NC9=O)noc8c7C5)C6)cc4)n3)C2)C1=O (stereo partly drawn) [Compound 57] | – | –
> 90% | – | CN1CCN(C2CCCN(c3cnc(C(N)=O)c(Nc4ccc(C5CCC6(CC5)CN(C5Cc7ccc8c(C9CCC(=O)NC9=O)noc8c7C5)C6)cc4)n3)C2)C1=O (stereo not drawn) [Compound 54] | 8.01 | –
– | >90% | CN1CCN([C@@H]2CCCN(c3cnc(C(N)=O)c(Nc4ccc5c(c4)CN(CC4Cc6ccc7c(C8CCC(=O)NC8=O)noc7c6C4)C5)n3)C2)C1=O (stereo partly drawn) [Compound 45] | – | –
– | >90% | CN1CCN([C@@H]2CCCN(c3cnc(C(N)=O)c(Nc4ccc(C5CCC6(CC5)CCN(CC5Cc7ccc8c(C9CCC(=O)NC9=O)noc8c7C5)CC6)cc4)n3)C2)C1=O (stereo partly drawn) [Compound 51] | – | pIC50 [1]: 8.33
> 90% | – | CN1CCN([C@@H]2CCCN(c3cnc(C(N)=O)c(Nc4ccc(C5CCC6(CC5)CC(N5CCc7c(ccc8c(C9CCC(=O)NC9=O)noc78)C5)C6)cc4)n3)C2)C1=O (stereo partly drawn) [Compound 58] | 7.68 | –
> 90% | – | CN1CCN([C@@H]2CCCN(c3cnc(C(N)=O)c(Nc4ccc(C5CCN(C6Cc7ccc8c(C9CCC(=O)NC9=O)noc8c7C6)CC5)cc4)n3)C2)C1=O (stereo partly drawn) [Compound 87] | – | pIC50 [1]: 7.96; pIC50 [3, 4]: > 9.51
> 90% | – | CN1CCN([C@@H]2CCCN(c3cnc(C(N)=O)c(Nc4ccc5c(c4)OC[C@H]4CN(CC6Cc7ccc8c(C9CCC(=O)NC9=O)noc8c7C6)CCN54)n3)C2)C1=O (stereo partly drawn) [Compound 86] | – | –
> 90% | – | CN1CCN([C@@H]2CCCN(c3cnc(C(N)=O)c(Nc4ccc(C5CCC6(CC5)CC(N5Cc7ccc8c(C9CCC(=O)NC9=O)noc8c7C5)C6)cc4)n3)C2)C1=O (stereo partly drawn) [Compound 56] | 7.48 | –
– | >90% | CN1CCN([C@@H]2CCCN(c3cnc(C(N)=O)c(Nc4ccc(C5CCN(C6Cc7ccc8c(C9CCC(=O)NC9=O)noc8c7C6)CC5)cc4)n3)C2)C1=O (stereo partly drawn) [Compound 88] | – | pIC50 [1]: 7.54
99% | – | CN1CCN([C@@H]2CCCN(c3cnc(C(N)=O)c(Nc4ccc(C5CCN(C[C@H]6CCN(c7cccc8c(C9CCC(=O)NC9=O)noc78)C6)CC5)cc4)n3)C2)C1=O (stereo partly drawn) [Compound 2] | 7.74 | DC50 [2]: < 0.098 nM
– | >90% | CN1CCN([C@@H]2CCCN(c3cnc(C(N)=O)c(Nc4ccc(C5C[C@@H]6CN(CC7Cc8ccc9c(C%10CCC(=O)NC%10=O)noc9c8C7)C[C@@H]6C5)cc4)n3)C2)C1=O (stereo partly drawn) [Compound 49] | – | pIC50 [1]: 8.17
> 90% | – | CN1CCN([C@@H]2CCCN(c3cnc(C(N)=O)c(Nc4ccc(C5C[C@@H]6CN(CC7Cc8ccc9c(C%10CCC(=O)NC%10=O)noc9c8C7)C[C@@H]6C5)cc4)n3)C2)C1=O (stereo partly drawn) [Compound 48] | 8.24 | –
– | >90% | CN1CCN([C@@H]2CCCN(c3cnc(C(N)=O)c(Nc4ccc5c(c4)CCC4(CCN(CC6Cc7ccc8c(C9CCC(=O)NC9=O)noc8c7C6)CC4)O5)n3)C2)C1=O (stereo partly drawn) [Compound 78] | – | –
– | >90% | CN1CCN([C@@H]2CCCN(c3cnc(C(N)=O)c(Nc4ccc(C5CCC6(CC5)CN(CC5Cc7ccc8c(C9CCC(=O)NC9=O)noc8c7C5)C6)cc4)n3)C2)C1=O (stereo partly drawn) [Compound 52] | 8.43 | –
– | >90% | CN1CCN(C2CCCN(c3cnc(C(N)=O)c(Nc4ccc(C5CCC6(CC5)CN(C5Cc7ccc8c(C9CCC(=O)NC9=O)noc8c7C5)C6)cc4)n3)C2)C1=O (stereo not drawn) [Compound 55] | – | pIC50 [1]: 8.21

Continued, molecule first:

Structure (SMILES) | Dmax [2] | BTK degradation in OCI-LY10 cells Dmax [2] | pIC50 ([1]; 72 h) | other results
CN1CCN([C@@H]2CCCN(c3cnc(C(N)=O)c(Nc4ccc(C5CCN(C[C@H]6CCN(c7cc8onc(C9CCC(=O)NC9=O)c8cc7F)C6)CC5)cc4)n3)C2)C1=O (stereo partly drawn) [Compound 3] | 99% | – | – | DC50 [2]: < 0.098 nM; pIC50 [3, 4]: > 9.51
CN1CCN([C@@H]2CCCN(c3cnc(C(N)=O)c(Nc4ccc(C5CCN(C[C@H]6CCN(c7ccc8c(C9CCC(=O)NC9=O)noc8c7)C6)CC5)cc4)n3)C2)C1=O (stereo partly drawn) [Compound 1] | 99% | – | 7.46 | DC50 [2]: < 0.098 nM; pIC50 [3, 4]: > 9.51
NC(=O)c1ncc(N2CCCCC2)nc1Nc1ccc(C2CCC(N3CCc4ccc5c(C6CCC(=O)NC6=O)noc5c4CC3)CC2)cc1 (stereo not drawn) [Compound 67] | – | – | – | pIC50 [1]: 7.49
CN1CCN([C@@H]2CCCN(c3cnc(C(N)=O)c(Nc4ccc(C5CCN(C[C@H]6CCN(c7ccc8onc(C9CCC(=O)NC9=O)c8c7)C6)CC5)cc4)n3)C2)C1=O (stereo partly drawn) [Compound 4] | – | – | 7.57 | –
NC(=O)c1ncc(N2CCCCC2)nc1Nc1ccc(N2CCC(N3CCc4c(ccc5c(C6CCC(=O)NC6=O)noc45)C3)CC2)cc1 (stereo not drawn) [Compound 61] | – | – | 7.89 | –
CN1CCN([C@@H]2CCCN(c3cnc(C(N)=O)c(Nc4ccc(C5CCC6(CC5)CN(C5CN(c7ccc8c(C9CCC(=O)NC9=O)noc8c7)C5)C6)cc4)n3)C2)C1=O (stereo partly drawn) [Compound 12] | – | 99% | – | DC50 [2]: 0.098 nM
CN1CCN([C@@H]2CCCN(c3cnc(C(N)=O)c(Nc4ccc(C5CCN(C[C@H]6CCC(c7ccc8c(C9CCC(=O)NC9=O)noc8c7)C6)CC5)cc4)n3)C2)C1=O (stereo partly drawn) [Compound 6] | 99% | – | 7.57 | DC50 [2]: < 0.098 nM; pIC50 [3, 4]: > 9.51
CN1CCN([C@@H]2CCCN(c3cnc(C(N)=O)c(Nc4ccc(C5CC6CCCC(C5)N6C5Cc6ccc7c(C8CCC(=O)NC8=O)noc7c6C5)cc4)n3)C2)C1=O (stereo partly drawn) [Compound 80] | – | >90% | – | pIC50 [1]: 7.96; pIC50 ([3]; 72 h incubation): > 9.51
NC(=O)c1ncc(N2CCCCC2)nc1Nc1ccc(N2CCC(N3CCc4ccc5c(C6CCC(=O)NC6=O)noc5c4C3)CC2)cc1 (stereo not drawn) [Compound 60] | – | – | 8.03 | –
CN1CCN([C@@H]2CCCN(c3cnc(C(N)=O)c(Nc4ccc(C5CCN(C[C@H]6C[C@H](n7ccc8c9c(C%10CCC(=O)NC%10=O)noc9ccc87)C6)CC5)cc4)n3)C2)C1=O (stereo partly drawn) [Compound 98-1] | – | >90% | – | –
NC(=O)c1ncc(N2CCCCC2)nc1Nc1ccc(C2CCN(C3Cc4ccc5c(C6CCC(=O)NC6=O)noc5c4C3)CC2)cc1 (stereo not drawn) [Compound 70] | – | – | – | pIC50 [1]: 7.82
NC(=O)c1ncc(N2CCCCC2)nc1Nc1ccc(C2CCC(CN3CCc4ccc5c(C6CCC(=O)NC6=O)noc5c4CC3)CC2)cc1 (stereo not drawn) [Compound 74] | – | – | – | pIC50 [1]: 7.64
NC(=O)c1ncc(N2CCCCC2)nc1Nc1ccc(C2CCN(CC3Cc4ccc5c(C6CCC(=O)NC6=O)noc5c4C3)CC2)cc1 (stereo not drawn) [Compound 76] | > 90% | – | – | pIC50 [1]: 7.96
NC(=O)c1ncc(N2CCCCC2)nc1Nc1ccc(C2CCN(CC3Cc4ccc5c(C6CCC(=O)NC6=O)noc5c4C3)CC2)cc1 (stereo not drawn) [Compound 75] | – | – | 8.01 | –
NC(=O)c1ncc(N2CCCCC2)nc1Nc1ccc(N2CCC(N3Cc4ccc5c(C6CCC(=O)NC6=O)noc5c4C3)CC2)cc1 (stereo not drawn) [Compound 31] | > 90% | – | – | –
CN1CCN([C@@H]2CCCN(c3cnc(C(N)=O)c(Nc4ccc(C5CCN([C@H]6CC[C@H](n7ccc8c9c(C%10CCC(=O)NC%10=O)noc9ccc87)CC6)CC5)cc4)n3)C2)C1=O (stereo partly drawn) [Compound 102-2] | – | 97.11% | – | DC50 [2]: < 0.098 nM
CN1CCN([C@@H]2CCCN(c3cnc(C(N)=O)c(Nc4ccc(C5CCN([C@H]6CC[C@@H](n7ccc8c9c(C%10CCC(=O)NC%10=O)noc9ccc87)CC6)CC5)cc4)n3)C2)C1=O (stereo partly drawn) [Compound 102-1] | – | >90% | – | –
NC(=O)c1ncc(N2CCCCC2)nc1Nc1ccc(C2CCN([C@H]3CC[C@H](n4ccc5c6c(C7CCC(=O)NC7=O)noc6ccc54)CC3)CC2)cc1 (stereo partly drawn) [Compound 103-2] | – | >90% | – | –
NC(=O)c1ncc(N2CCCCC2)nc1Nc1ccc(C2CCN(C[C@H]3C[C@@H](n4ccc5c6c(C7CCC(=O)NC7=O)noc6ccc54)C3)CC2)cc1 (stereo partly drawn) [Compound 99-1] | – | >90% | – | –
